Measurements published in patent US6228880A, “4-amino-(ethylamino)-oxindole dopamine autoreceptor agonists” (American Home Products Corp, priority 1999, dated 2001).
Structures can show the parent of a compound that is named as a salt.

What was measured:
[1] = biological target: T1, dopamine autoreceptor (D2) (Rattus norvegicus, UniProt P61169); test: Affinity for the dopamine autoreceptor, rat striatal tissue homogenate (D2 Quin.); format: binding; settings: homogenized rat striatal brain tissue
T1 construct: from tissue; host or cells: rat striatum homogenate
Description: (§1) The affinity for the dopamine autoreceptor was established by the standard experimental test procedure of Seemen and Schaus, European Journal of Pharmacology, 203:105-109 (1991). According to this procedure, homogenized rat striatal brain tissue was incubated with the appropriate concentrations of test compound, filtered and washed and counted in a Betaplate scintillation counter.

dopamine D2 receptor [2] = biological target: T2, dopamine D2 receptor (Rattus norvegicus, UniProt P61169); test: Affinity for the dopamine D2 receptor, 3H-spiroperidol binding in limbic brain tissue homogenate (D2 Spiper); settings: 3H-spiroperidol (Spiper.); homogenized limbic brain tissue
T2 construct: from tissue; host or cells: limbic brain tissue homogenate
Description: High affinity for the dopamine D2 receptor was established by the standard experimental test procedure of Fields, et al., Brain Res., 136:578 (1977) and Yamamura et al., eds., Neurotransmitter Receptor Binding, Raven Press, N.Y. (1978). Homogenized limbic brain tissue was incubated with ^3 H-spiroperidol (Spiper.) and the appropriate concentrations of test compound, filtered, washed and shaken with Hydrofluor scintillation cocktail (available from National Diagnostics) and counted in a Packard 460 CD scintillation counter.

dopamine D2 receptor [3] = biological target: T2, dopamine D2 receptor; test: Ratio of D2 Spiper to D2 Quin. (LowAg/HighAg, intrinsic activity); format: binding; settings: D2 Spiper IC50 / D2 Quin. IC50 (LowAg/HighAg)
From the text: Efforts to induce antipsychotic activity with dopamine autoreceptor agonists have been successful (e.g., see Dorsini et al., Adv. Biochem. Psychopharmacol., 16:645-648 (1977); Tamminga et al., Science, 200:567-568 (1975); and Tamminga et al., Psychiatry 398-402 (1986). A method for determining intrinsic activity at the dopamine D2 receptor was recently reported by Lahti et al., Mol. Pharm. 42:432-438 (1993). Intrinsic activity is predicted using the ratio of the "low-affinity agonist" (i.e., LowAg) state of the receptor and the "high-affinity agonist" (i.e., HighAg) state of the receptor, i.e. LowAg/HighAg. These ratios correlate with the agonist, partial agonist, and antagonist activities of a given compound. Such activities characterize the ability of a compound to elicit an antipsychotic effect.
as §1, with “counter. […]” for “counter.”

T2 sequence (P61169 whole entry): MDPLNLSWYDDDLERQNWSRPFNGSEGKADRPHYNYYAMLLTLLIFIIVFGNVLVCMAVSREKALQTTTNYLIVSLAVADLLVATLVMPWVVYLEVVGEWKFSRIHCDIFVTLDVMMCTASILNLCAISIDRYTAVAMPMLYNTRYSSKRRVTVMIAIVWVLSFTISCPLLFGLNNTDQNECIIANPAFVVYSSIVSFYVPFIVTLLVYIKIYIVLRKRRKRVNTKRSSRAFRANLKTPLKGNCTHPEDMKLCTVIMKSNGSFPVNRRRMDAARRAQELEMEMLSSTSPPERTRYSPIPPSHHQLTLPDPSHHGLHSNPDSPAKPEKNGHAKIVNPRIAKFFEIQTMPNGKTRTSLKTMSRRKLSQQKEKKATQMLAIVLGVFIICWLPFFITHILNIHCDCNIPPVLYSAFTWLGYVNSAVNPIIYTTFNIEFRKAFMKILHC
T1 sequence (P61169 whole entry): as above

O=C1Cc2c(NCCNCc3ccccc3)cccc2N1 [Example 1, 4-(2-Benzylamino-ethylamino)-1,3-dihydro-indol-2-one.dihydrochloride.0.1 hydrate] was tested, and the IC50 [1] was 13.2 nM, the IC50 (dopamine D2 receptor [2]) was 892 nM and the Ratio (dopamine D2 receptor [3]) was 67.7.
